In patent US4800207A, “Hexahydropyrrolizine compounds useful as analgesics” (McNeilab, Inc., priority 1987, dated 1989):

Test system: Mouse Acetylcholine-Bromide-Induced Abdominal Constriction
Test: Mouse Acetylcholine-Bromide-Induced Abdominal Constriction Assay
Type: in vivo
Conditions: p.o. 30 minutes before 5.5 mg/kg i.p. acetylcholine bromide, ten minute observation; for % Inhibition 30 mg Kg (percent inhibition of writhing, % analgesia): at least 20 animals per group; for ED50: Mus musculus, po, four doses, probit analysis, read-out: ED50 (that dose which inhibits writhing by 50%)
Description: Mouse Acetylcholine-Bromide-Induced Abdominal Constriction Assay
The mouse acetylcholine-induced abdominal constriction assay, as described by Collier et al. in Brit. J. Pharmacol. Chemother, 32: 295-310, 1968, with minor modifications was one test used to assess analgesic potency. The test drugs or appropriate vehicle were administered p.o. and 30 minutes later the animals received an i.p. injection of 5.5 mg/kg acetylcholine bromide (Matheson, Coleman and Bell, East Rutherford, N.J.). The mice where then placed in groups of four into glass bell jars and observed for a ten minute observation period for the occurrence of a writhe which is defined as a wave of constriction and elongation passing caudally along the abdominal wall, accompanied by a twisting of the trunk and followed by extension of the hind limbs. The percent inhibition of writhing (equated to % analgesia) was calculated as follows: The % inhibition of writhing, i.e., % analgesia is equal to the difference between the number of control animals writhing and the number of drug-treated animals writhing times 100 divided by the number of control animals writhing.
At least 20 animals were used for control and in each of the drug treated groups. Four doses were used to determine each dose response curve and ED50 (that dose which inhibits writhing by 50%). The ED50 values and their 95% fiducial limits were determined by a computer assisted probit analysis.

Structure (SMILES) | % Inhibition 30 mg Kg (percent inhibition of writhing, % analgesia) | ED50
c1ccc(C2CCC3CCCN32)cc1 (stereo not drawn) [Example 1, Hexahydro-3-phenyl-1H-pyrrolizine] | 100% | 5.7 mg/kg
Cc1ccc(C2CCC3CCCN32)cc1 (stereo not drawn) [Example 3d, Hexahydro-3-(4-methylphenyl)-1H-pyrrolizine] | 100% | 
Brc1ccccc1C1CCC2CCCN21 (single isomer, unassigned) [2f (diasteriomer A), 3-(2-bromophenyl)hexahydro-1H-pyrrolizine] | 60% | 
Brc1ccccc1C1CCC2CCCN21 (single isomer, unassigned) [2f (diasteriomer B), 3-(2-bromophenyl)hexahydro-1H-pyrrolizine] | 100% | 8.7 mg/kg
